Entries after “also recorded” stand apart in the source; their conditions may differ.
Tests used:
[1] = system: Ad-36 in preadipocytes; details: preadipocytes in tissue culture; cited from earlier work
[2] = system: phosphorylated Akt in MCF-10A cells; test: Akt phosphorylation (Western blot) in MCF-10A cells with or without Ad-36 infection; assay type: cell-based, human
Description: MCF-10A cells were infected with Ad-36 and treated with luteolin and/or metformin, then Akt phosphorylation was measured using Western blot. The top band is phosphorylated Akt. […] Lane 2 is MCF-10A cells infected with Ad-36 virus. Lane 3 is metformin, MCF-10A cells infected with Ad-36 virus. Lane 4 is uninfected MCF-10A cells treated with metformin. Lane 5 is MCF-10A cells infected with Ad-36 virus and treated with luteolin. Lane 6 is uninfected MCF-10A cells treated with luteolin. Lane 7 is MCF-10A cells infected with Ad-36 and treated with a combination of metformin and luteolin. Lane 8 is uninfected MCF-10A cells treated with a combination of metformin and luteolin.

[3] = system: Ad-36; test: Replication of Ad-36 in A549 cells assessed by cytopathic effect (CPE); assay type: cell-based, human adenovirus 36 in human A549 cells; details: multiple different doses, 100 TCID/well, CPE 3 and 4 days post-infection
Description: A549 cells were infected with a fixed amount of Ad-36 (100 TCID/well) for 2 hours, then media containing the virus was removed, replaced with serial dilutions of metformin, luteolin, or a combination. Cytopathic effect (CPE) was evaluated 3 days and 4 days post-infection (PI). Each condition had 8 wells. The efficacy of the different drug treatments was evaluated by determining whether there were fewer wells with CPE as compared to the control condition for the different treatment conditions, which reflected the degree to which a particular treatment was working to inhibit the virus.

[4] = system: Ad-36; test: TCID50 of A549 cells exposed to Ad-36; assay type: cell-based, human adenovirus 36 in human A549 cells
Description: “TCID50” refers to 50% tissue culture infective dose (TCID50), an endpoint dilution assay that quantifies the amount of virus required to kill 50% of infected hosts or to produce a cytopathic effect in 50% of inoculated tissue culture cells.
The experimental conditions were assessed: (A) Control condition in which cells were infected with the virus throughout incubation, no luteolin added; (B) Cells and virus were both pretreated with luteolin, then the cells were incubated with both the virus and luteolin; and (C) Cells pretreated with luteolin only, luteolin removed, then cells incubated with virus but without luteolin. The TCID50 value was calculated for each group.

[5] = system: MCF-10A cells infected with Ad-36; test: Growth rate (cell count) of MCF-10A cells infected with Ad-36; assay type: cell-based, human; details: 5 μM
Description: FIG. 11 is a graph showing that luteolin reduces the growth rate of MCF-10A cells infected with Ad-36. […] Over a time course, cells were trypsinized and counted using a hemocytometer. As illustrated, ⋄ refers to mock infected cells incubated without luteolin; □ refers to mock infected cells treated with luteolin; Δ refers to Ad-36-infected cells incubated without luteolin; and × refers to Ad-36-infected cells treated with luteolin.
Luteolin reduces the growth rate of […] (MCF-10A) that have been infected with Ad-36 in tissue culture (FIG. 11). MCF-10A cells were infected with a multiplicity of infection (MOI) of 0.5 at day 0 for 2 hours, then replaced with fresh medium containing 5 μM luteolin or vehicle. At each time period, cells were trypsinzed and counted using a hemocytometer. Fresh luteolin (5 μM) was added on day 0 (after infection), day 3 and day 5 in order to insure a constant concentration of agent. […] The cells infected with Ad-36 and not exposed to luteolin had the highest growth rate, faster than cells without Ad-36. When luteolin is added, cell growth is slowed.

[6] = system: FAS protein in MCF-7 cells infected with Ad-36; test: FAS protein expression (Western blot) in MCF-7 cells infected with Ad-36; assay type: cell-based, human; details: Ad-36-infected MCF-7 cells; for FAS protein expression: vs infected untreated control; for amount of FAS protein: range of 10 uM/L to 100 uM/L (FIG. 8)
Description: MCF-7 cells were incubated with Adv36 and a range of 10 uM/L to 100 uM/L of Didox or Tridox.
Human breast cancer cells (MCF-7) were infected with Ad-36 virus and treated with antiviral compounds Didox or Tridox. MCF-7 cells were incubated with Ad-36 and a range of about 10 μM/L to about 100 μM/L of Didox or Tridox. The control for the experiments was MCF-7 cells infected with Ad-36 that were not treated with an antiviral compound. Fifty micrograms of protein was loaded per lane on an SDS-PAGE gel, followed by Western blot analysis detecting FAS.

[7] = system: FAS protein in 3T3-L1 cells; test: FAS protein expression (Western blot) in 3T3-L1 preadipocyte cells with MDI and Ad-36; assay type: cell-based, mouse; details: for FAS protein as dosage is increased: 3T3-L1 preadipocyte cells (FIG. 9 as described)
Description: The effects of Tridox on FAS protein expression were evaluated in 3T3-L preadipocyte cells. Control cells were maintained without exposure to Ad-36 or to the differentiation cocktail of methyl-isobutyl-xanthine, dexamethasone, and insulin (MDI). See, e.g., Ntambi and CheulKim, J. Nutrition, 120: […] for description of MDI differentiation cocktail.

[8] = MCF-10A cells infected with Ad-36 and treated
[9] = uninfected MCF-10A cells treated

For Nc1ccn(C[C@@H](CO)OCP(=O)(O)O)c(=O)n1 [Cidofovir], the “lipogenic effect of Ad-36” value [1] is listed as “block the lipogenic effect”.

For O=c1cc(-c2ccc(O)c(O)c2)oc2cc(O)cc(O)c12 [luteolin], the Akt phosphorylation [2, 8] was “marked reduction”, the Akt phosphorylation [2, 9] was “stimulated” and the “effect of Ad-36 on A549 cells (CPE, replication)” value [3] was “inhibits”. For the same molecule, the “virulence of Ad-36 infection / Ad-36 infection” value ([4]; A549 cells, overall conclusion) was “blocks virulence; also recorded: inhibits Ad-36 infection”, the TCID50 value ([4]; Group B: cells and virus pretreated with luteolin, then cells incubated with virus and luteolin, vs control) was “slightly higher than control” and the TCID50 value ([4]; Group C: cells pretreated with luteolin only, luteolin removed, then incubated with virus) was “lowest and low”. The TCID value ([4]; second experiment (not shown), same condition as Group B, vs control) was “increased almost twice as much as the control value”, the “growth rate (cell number)” value ([5]; Ad-36-infected (MOI 0.5) MCF-10A cells) was “slowest growth rate; also recorded: slow growth rate” and the “cell growth when compound is added” value ([5]; MCF-10A cells) was “slowed”.

For CN(C)C(=N)N=C(N)N [metformin], the Akt phosphorylation [2, 8] was “marked reduction”, the Akt phosphorylation [2, 9] was “stimulated” and the “effect of Ad-36 on A549 cells (CPE, replication)” value [3] was “inhibits”.

In the case of O=C(NO)c1ccc(O)c(O)c1 [Didox, 3,4 dihydrobezohydoxamic acid], the FAS protein expression ([6]; about 50 μM) is reported as “decrease”, the FAS protein expression ([6]; about 100 μM) is reported as “decrease” and the “amount of FAS protein” value [6] is reported as “decreased”. The “FAS protein as dosage is increased” value [7] was “decreased”.

In the case of NC(=NO)c1cc(O)c(O)c(O)c1 [Tridox, 3,4,5 trihydroxybenzamidoxime], the FAS protein expression ([6]; about 10 μM) is reported as “decrease”, the FAS protein expression ([6]; about 50 μM) is reported as “decrease” and the FAS protein expression ([6]; about 100 μM) is reported as “decrease”. The “amount of FAS protein” value [6] was “decreased”, the “infection with Ad-36 (conclusion from FAS data)” value ([7]; 3T3-L1 cells) was “inhibits infection with Ad-36” and the FAS protein levels ([7]; 3T3-L1 cells exposed to Ad-36 in media containing 10 μM) was “even lower”. For the same molecule, the FAS expression ([7]; 3T3-L1 cells infected with Ad-36, then incubated with MDI and 10 μM) was “modest decrease”, the FAS expression ([7]; 3T3-L1 cells pretreated with compound, then incubated with MDI and Ad-36) was “more marked decrease; also recorded: greater decrease” and the “FAS protein as dosage is increased” value [7] was “decreased”.

Reference: patent publication US20130178517A1, “Methods And Compositions For Treatment Of Lipogenic Virus Related Conditions” (priority 2010, published 2013)
